Assay [1] has as its target T1, OsDRP1E (MBP-OsDRP1E) (Oryza sativa, UniProt Q650Z3, E409V).
T1 construct: gene Os09g0572900; tag kept; native protein 70 kDa
T1 sequence (Q650Z3 1-626 E409V): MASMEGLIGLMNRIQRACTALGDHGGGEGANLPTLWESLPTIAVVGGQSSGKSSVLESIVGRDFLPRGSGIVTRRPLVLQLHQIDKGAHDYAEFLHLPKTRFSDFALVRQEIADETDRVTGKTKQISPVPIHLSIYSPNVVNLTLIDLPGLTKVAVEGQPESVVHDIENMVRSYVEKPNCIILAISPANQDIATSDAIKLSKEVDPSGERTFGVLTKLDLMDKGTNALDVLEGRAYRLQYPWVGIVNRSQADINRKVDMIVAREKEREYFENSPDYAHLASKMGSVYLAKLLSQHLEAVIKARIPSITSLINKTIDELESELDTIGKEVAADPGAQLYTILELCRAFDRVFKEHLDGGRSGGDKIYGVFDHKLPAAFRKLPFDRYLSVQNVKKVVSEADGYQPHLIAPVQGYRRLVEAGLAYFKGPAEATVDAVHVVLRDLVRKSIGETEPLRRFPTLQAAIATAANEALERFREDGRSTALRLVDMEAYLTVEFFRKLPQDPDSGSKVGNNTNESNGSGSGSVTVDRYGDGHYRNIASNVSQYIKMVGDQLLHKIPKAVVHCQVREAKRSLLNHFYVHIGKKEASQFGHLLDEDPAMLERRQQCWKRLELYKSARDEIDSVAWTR
As to the kind of experiment: colorimetric phosphate release GTPase assay. The assay is classed as biochemical. Particulars: MBP fusion; time course and 2, 5, 10 ug protein; lower activity than wild type.

For assay [2], the target named is T2, OsDRP1E (MBP-OsDRP1E) (Oryza sativa, UniProt Q650Z3).
T2 construct: gene Os09g0572900; tag kept; native protein 70 kDa
T2 sequence (Q650Z3 1-626): T1 sequence (Q650Z3 1-626 E409V) with V409E
As to the kind of experiment: colorimetric phosphate release GTPase assay. The assay is classed as biochemical. Particulars: MBP fusion; time course and 2, 5, 10 ug protein.

Structures are written as SMILES. Where a chain is given by its changes, count along the chain named.

With `Nc1nc2c(ncn2[C@@H]2O[C@H](COP(=O)(O)OP(=O)(O)OP(=O)(O)O)[C@@H](O)[C@H]2O)c(=O)[nH]1` [GTP], the “colorimetric phosphate release GTPase assay” value at OsDRP1E (MBP-OsDRP1E) [1] is “both MBP-OsDRP1E and MBP-E409V displayed catalytic activity towards the substrate GTP”; at OsDRP1E (MBP-OsDRP1E) [2], “both MBP-OsDRP1E and MBP-E409V displayed catalytic activity towards the substrate GTP”.
